Test results: patent US20220251163A1 (Sinopep-Allsino Biopharmaceutical Co., Ltd., priority 2019, published 2022)
Where two headings read alike, the source gives them in different places. *1 amine or outer side, *2 acyl side, *3 side chain or, on linkers, in order; H or OH if unused. Where a SMILES comes first, the peptide text is derived from it. Side-chain parts run from the residue outwards. [ ]: non-standard residue; d: D form. The star is where a group is joined. C18 diacid = O=C(O)CCCCCCCCCCCCCCCCC(=O)*; γGlu = O=C(O)[C@H](CCC(=O)[*:2])N[*:1]; AEEA = NCCOCCOCC(=O)O; Aib = CC(C)(N)C(=O)O

Key:
mGIPR = target: T1, mGIPR (Mus musculus, UniProt Q0P543); experiment: GIPR agonist activity, cAMP in transfected HEK293 cells; format: cell-based
T1 construct: expressed in transfected cells; host or cells: HEK293
T1 sequence (Q0P543 19-460): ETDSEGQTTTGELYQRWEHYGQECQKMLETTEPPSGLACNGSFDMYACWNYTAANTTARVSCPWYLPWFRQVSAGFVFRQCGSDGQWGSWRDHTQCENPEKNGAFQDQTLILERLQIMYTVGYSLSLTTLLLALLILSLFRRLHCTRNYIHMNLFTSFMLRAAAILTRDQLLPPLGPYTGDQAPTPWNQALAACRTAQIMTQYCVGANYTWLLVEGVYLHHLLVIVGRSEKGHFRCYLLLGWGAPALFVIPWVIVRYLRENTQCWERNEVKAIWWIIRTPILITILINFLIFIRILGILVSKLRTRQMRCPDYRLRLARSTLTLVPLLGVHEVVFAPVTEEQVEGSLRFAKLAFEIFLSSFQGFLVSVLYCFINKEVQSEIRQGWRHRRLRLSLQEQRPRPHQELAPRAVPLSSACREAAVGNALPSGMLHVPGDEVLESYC
Protocol: HEK293 cells were co-transfected with cDNA encoding GLP-1R or GIPR. In a test for determining the compound, the cells were inoculated in a 96-well plate 2 h in advance, the polypeptide compound was dissolved with DMSO, and diluted to different multiples with a culture medium containing 0.1% bovine serum albumin and added to the co-transfected cells.

ob/ob mice = experiment: Blood glucose reducing experiment, single subcutaneous injection in ob/ob mice; format: in vivo; details: 100 μg/kg single s.c.; for Blood glucose at different time after administration, 0 h: 0 h (before administration); for Blood glucose at different time after administration, 0 h / Blood glucose at different time after administration, 2 h / Blood glucose at different time after administration, 4 h / Blood glucose at different time after administration, 6 h / Blood glucose at different time after administration, 10 h / Blood glucose at different time after administration, 24 h / Blood glucose at different time after administration, 34 h / AUC0-24 h Glu: X ± s, n = 7; for AUC0-24 h Glu: blood glucose curve area within 24 h; for AUC0-24 h Glu Decrease rate: versus model control group;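 as to all read-outs here: random blood glucose read at each time point, decrease rate given as percentage fall versus the model control group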
[1] = Effect on random weight of ob/ob mice after single subcutaneous injection; format: in vivo; details: 100 μg/kg single s.c., X ± s, n = 7
mGLP-1R = target: T2, mGLP-1R (Mus musculus, UniProt O35659); experiment: GLP-1R agonist activity, cAMP in transfected HEK293 cells; format: cell-based
T2 construct: expressed in transfected cells; host or cells: HEK293
T2 sequence (O35659 22-463): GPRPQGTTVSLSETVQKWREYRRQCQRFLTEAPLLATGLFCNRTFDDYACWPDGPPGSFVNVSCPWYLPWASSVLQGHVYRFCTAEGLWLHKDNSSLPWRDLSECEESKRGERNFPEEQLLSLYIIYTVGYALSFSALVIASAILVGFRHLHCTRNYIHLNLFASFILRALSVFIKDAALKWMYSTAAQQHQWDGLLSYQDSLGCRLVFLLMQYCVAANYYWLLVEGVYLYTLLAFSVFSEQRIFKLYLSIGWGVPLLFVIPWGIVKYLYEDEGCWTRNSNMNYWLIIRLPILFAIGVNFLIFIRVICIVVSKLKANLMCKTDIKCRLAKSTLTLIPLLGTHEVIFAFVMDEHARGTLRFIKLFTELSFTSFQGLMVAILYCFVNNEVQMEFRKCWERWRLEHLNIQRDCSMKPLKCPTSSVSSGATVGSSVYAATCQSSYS

Compound: CC[C@H](C)[C@H](NC(=O)[C@H](CC(C)C)NC(=O)[C@H](Cc1c[nH]c2ccccc12)NC(=O)[C@H](CCC(N)=O)NC(=O)[C@@H](NC(=O)[C@H](Cc1ccccc1)NC(=O)[C@H](C)NC(=O)[C@H](CCCCNC(=O)COCCOCCNC(=O)COCCOCCNC(=O)CC[C@H](NC(=O)CCCCCCCCCCCCCCCCC(=O)O)C(=O)O)NC(=O)[C@H](CCC(N)=O)NC(=O)[C@H](C)NC(=O)[C@@H](NC(=O)[C@H](CCCCN)NC(=O)[C@H](CC(=O)O)NC(=O)[C@H](CC(C)C)NC(=O)C(C)(C)NC(=O)[C@@H](NC(=O)[C@H](CO)NC(=O)[C@H](Cc1ccc(O)cc1)NC(=O)[C@H](CC(=O)O)NC(=O)[C@H](CO)NC(=O)[C@@H](NC(=O)[C@H](Cc1ccccc1)NC(=O)[C@@H](NC(=O)CNC(=O)[C@H](CCC(=O)O)NC(=O)[C@H](C)NC(=O)[C@@H](N)Cc1ccc(O)cc1)[C@@H](C)O)[C@@H](C)O)[C@@H](C)CC)[C@@H](C)CC)C(C)C)C(=O)N[C@@H](C)C(=O)NCC(=O)NCC(=O)N1CCC[C@H]1C(=O)N[C@@H](CO)C(=O)N[C@@H](CO)C(=O)NCC(=O)N[C@@H](C)C(=O)N1CCC[C@H]1C(=O)N1CCC[C@H]1C(=O)N1CCC[C@H]1C(=O)N[C@@H](CO)C(N)=O [ID NO: 5] (H-YAEGTFTSDYSI[Aib]LDKIAQK([AEEA-AEEA-γGlu-C18 diacid])AFVQWLIAGGPSSGAPPPS-NH2)
- EC50 (mGIPR; HEK293 cells transfected with GIPR, cAMP, 20 min incubation, read-out: mGIPR EC50): 6.4 pM
- Blood glucose at different time after administration, 0 h (ob/ob mice): 20.57 ± 0.84 mmol/L
- Decrease rate of blood glucose at different time after administration, 2 h (ob/ob mice): 50.8%
- Blood glucose at different time after administration, 2 h (ob/ob mice): 10.12 ± 1.20 mmol/L
- Decrease rate of blood glucose at different time after administration, 4 h (ob/ob mice): 53.6%
- Blood glucose at different time after administration, 4 h (ob/ob mice): 9.54 ± 0.84 mmol/L
- Decrease rate of blood glucose at different time after administration, 6 h (ob/ob mice): 54.2%
- Blood glucose at different time after administration, 6 h (ob/ob mice): 9.43 ± 0.86 mmol/L
- Decrease rate of blood glucose at different time after administration, 10 h (ob/ob mice): 52.6%
- Blood glucose at different time after administration, 10 h (ob/ob mice): 9.76 ± 0.96 mmol/L
- Decrease rate of blood glucose at different time after administration, 24 h (ob/ob mice): 47.1%
- Blood glucose at different time after administration, 24 h (ob/ob mice): 10.89 ± 1.43 mmol/L
- Decrease rate of blood glucose at different time after administration, 34 h (ob/ob mice): 35.2%
- Blood glucose at different time after administration, 34 h (ob/ob mice): 13.33 ± 2.10 mmol/L
- Decrease rate of blood glucose at different time after administration, 48 h (ob/ob mice): 15.8%
- AUC0-24 h Glu (ob/ob mice): 252.25 ± 19.68 mmol·h/L
- AUC0-24 h Glu Decrease rate (ob/ob mice): 50.6%
- Changes of random body weight at different time after administration, 0 h [1]: 0.0 ± 0.0 g
- Random body weight at different time after administration, 0 h [1]: 43.5 ± 0.9 g
- Changes of random body weight at different time after administration, 24 h [1]: -1.4 ± 0.2 g
- Random body weight at different time after administration, 24 h [1]: 42.0 ± 0.9 g
- Changes of random body weight at different time after administration, 48 h [1]: -0.6 ± 0.2 g
- Random body weight at different time after administration, 48 h [1]: 42.9 ± 0.9 g
- EC50 (mGLP-1R; HEK293 cells transfected with GLP-1R, cAMP, 20 min incubation, read-out: mGLP-1R EC50): 2.99 pM

Compound: CC[C@H](C)[C@H](NC(=O)[C@H](CCCCN)NC(=O)[C@H](CC(=O)O)NC(=O)[C@H](CC(C)C)NC(=O)[C@H](C)NC(=O)[C@@H](NC(=O)[C@H](CO)NC(=O)[C@H](Cc1ccc(O)cc1)NC(=O)[C@H](CC(=O)O)NC(=O)[C@H](CO)NC(=O)[C@@H](NC(=O)[C@H](Cc1ccccc1)NC(=O)[C@@H](NC(=O)CNC(=O)[C@H](CCC(=O)O)NC(=O)C(C)(C)NC(=O)[C@@H](N)Cc1ccc(O)cc1)[C@@H](C)O)[C@@H](C)O)[C@@H](C)CC)C(=O)N[C@@H](C)C(=O)N[C@@H](CCC(N)=O)C(=O)N[C@@H](CCCCNC(=O)COCCOCCNC(=O)COCCOCCNC(=O)CC[C@H](NC(=O)CCCCCCCCCCCCCCCCC(=O)O)C(=O)O)C(=O)N[C@@H](C)C(=O)N[C@@H](Cc1ccccc1)C(=O)N[C@H](C(=O)N[C@@H](CCC(N)=O)C(=O)N[C@@H](Cc1c[nH]c2ccccc12)C(=O)N[C@@H](CC(C)C)C(=O)N[C@H](C(=O)N[C@@H](C)C(=O)NCC(=O)NCC(=O)N1CCC[C@H]1C(=O)N[C@@H](CO)C(=O)N[C@@H](CO)C(=O)NCC(=O)N[C@@H](C)C(=O)N1CCC[C@H]1C(=O)N1CCC[C@H]1C(=O)N1CCC[C@H]1C(=O)N[C@@H](CO)C(N)=O)[C@@H](C)CC)C(C)C [ID NO: 6] (H-Y[Aib]EGTFTSDYSIALDKIAQK([AEEA-AEEA-γGlu-C18 diacid])AFVQWLIAGGPSSGAPPPS-NH2)
- EC50 (mGIPR): 9.29 pM
- Blood glucose at different time after administration, 0 h (ob/ob mice): 20.64 ± 0.77 mmol/L
- Decrease rate of blood glucose at different time after administration, 2 h (ob/ob mice): 52.7%
- Blood glucose at different time after administration, 2 h (ob/ob mice): 9.76 ± 0.83 mmol/L
- Decrease rate of blood glucose at different time after administration, 4 h (ob/ob mice): 56.6%
- Blood glucose at different time after administration, 4 h (ob/ob mice): 8.96 ± 0.77 mmol/L
- Decrease rate of blood glucose at different time after administration, 6 h (ob/ob mice): 58.6%
- Blood glucose at different time after administration, 6 h (ob/ob mice): 8.55 ± 0.96 mmol/L
- Decrease rate of blood glucose at different time after administration, 10 h (ob/ob mice): 51.9%
- Blood glucose at different time after administration, 10 h (ob/ob mice): 9.93 ± 0.76 mmol/L
- Decrease rate of blood glucose at different time after administration, 24 h (ob/ob mice): 49.0%
- Blood glucose at different time after administration, 24 h (ob/ob mice): 10.53 ± 1.21 mmol/L
- Decrease rate of blood glucose at different time after administration, 34 h (ob/ob mice): 36.4%
- Blood glucose at different time after administration, 34 h (ob/ob mice): 13.13 ± 2.21 mmol/L
- Decrease rate of blood glucose at different time after administration, 48 h (ob/ob mice): 13.8%
- AUC0-24 h Glu (ob/ob mice): 246.81 ± 18.95 mmol·h/L
- AUC0-24 h Glu Decrease rate (ob/ob mice): 51.7%
- Changes of random body weight at different time after administration, 0 h [1]: 0.0 ± 0.0 g
- Random body weight at different time after administration, 0 h [1]: 43.5 ± 0.6 g
- Changes of random body weight at different time after administration, 24 h [1]: -1.5 ± 0.2 g
- Random body weight at different time after administration, 24 h [1]: 42.1 ± 0.7 g
- Changes of random body weight at different time after administration, 48 h [1]: -0.8 ± 0.1 g
- Random body weight at different time after administration, 48 h [1]: 42.7 ± 0.7 g
- EC50 (mGLP-1R): 2.58 pM
